Experimental data published in ChEMBL document CHEMBL2440076, “New triarylpyrazoles as broad-spectrum anticancer agents: design, synthesis, and biological evaluation” (Eur J Med Chem, 2013).

Assays:
Assay type in all cases: functional
[1] = test system: A549; assay: Growth inhibition of human A549/ATCC cells assessed as cell growth at 5X10'-6 M after 48 hrs by sulforhodamine B assay; details: A549, 48 h, read-out: Activity
[2] = test system: MCF7; assay: Growth inhibition of human MCF7 cells assessed as cell growth at 5X10'-9 M after 48 hrs by sulforhodamine B assay; details: MCF7, 48 h, read-out: Activity
[3] = test system: ACHN; assay: Growth inhibition of human ACHN cells assessed as cell growth at 5X10'-9 M after 48 hrs by sulforhodamine B assay; details: read-out: Activity
[4] = test system: OVCAR-3; assay: Growth inhibition of human OVCAR3 cells assessed as cell growth at 5X10'-7 M after 48 hrs by sulforhodamine B assay; details: OVCAR-3, 48 h, read-out: Activity
[5] = test system: MOLT-4; assay: Growth inhibition of human MOLT4 cells assessed as cell growth at 5X10'-8 M after 48 hrs by sulforhodamine B assay; details: MOLT-4, 48 h, read-out: Activity
[6] = test system: M14; assay: Growth inhibition of human M14 cells assessed as cell growth at 5X10'-9 M after 48 hrs by sulforhodamine B assay; details: M14, 48 h, read-out: Activity
[7] = test system: SN12C; assay: Growth inhibition of human SN12C cells assessed as cell growth at 5X10'-7 M after 48 hrs by sulforhodamine B assay; details: read-out: Activity
[8] = test system: MDA-MB-468; assay: Growth inhibition of human MDA-MB-468 cells assessed as cell growth at 5X10'-9 M after 48 hrs by sulforhodamine B assay; details: MDA-MB-468, 48 h, read-out: Activity
[9] = test system: CAKI-1; assay: Growth inhibition of human CAKI-1 cells assessed as cell growth at 5X10'-5 M after 48 hrs by sulforhodamine B assay; details: CAKI-1, 48 h, read-out: Activity
[10] = test system: A498; assay: Growth inhibition of human A498 cells assessed as cell growth at 5X10'-9 M after 48 hrs by sulforhodamine B assay; details: A498, 48 h, read-out: Activity
[11] = test system: HCT-15; assay: Growth inhibition of human HCT15 cells assessed as cell growth at 5X10'-5 M after 48 hrs by sulforhodamine B assay; details: HCT-15, 48 h, read-out: Activity
[12] = test system: IGROV-1; assay: Growth inhibition of human IGROV1 cells assessed as cell growth at 5X10'-6 M after 48 hrs by sulforhodamine B assay; details: IGROV-1, 48 h, read-out: Activity
[13] = test system: KM12; assay: Growth inhibition of human KM12 cells assessed as cell growth at 5X10'-6 M after 48 hrs by sulforhodamine B assay; details: KM12, 48 h, read-out: Activity
[14] = test system: SNB-75; assay: Growth inhibition of human SNB75 cells assessed as cell growth at 5X10'-7 M after 48 hrs by sulforhodamine B assay; details: SNB-75, 48 h, read-out: Activity
[15] = test system: SK-MEL-28; assay: Growth inhibition of human SK-MEL-28 cells assessed as cell growth at 5X10'-8 M after 48 hrs by sulforhodamine B assay; details: SK-MEL-28, 48 h, read-out: Activity
[16] = test system: TK-10; assay: Growth inhibition of human TK10 cells assessed as cell growth at 5X10'-7 M after 48 hrs by sulforhodamine B assay; details: TK-10, 48 h, read-out: Activity
[17] = test system: 786-0; assay: Growth inhibition of human 786-0 cells assessed as cell growth at 5X10'-5 M after 48 hrs by sulforhodamine B assay; details: 786-0, 48 h, read-out: Activity
[18] = test system: MCF7; assay: Growth inhibition of human MCF7 cells assessed as cell growth at 5X10'-7 M after 48 hrs by sulforhodamine B assay; details: MCF7, 48 h, read-out: Activity
[19] = test system: A549; assay: Growth inhibition of human A549/ATCC cells assessed as cell growth at 5X10'-5 M after 48 hrs by sulforhodamine B assay; details: A549, 48 h, read-out: Activity
[20] = test system: MCF7; assay: Growth inhibition of human MCF7 cells assessed as cell growth at 5X10'-5 M after 48 hrs by sulforhodamine B assay; details: MCF7, 48 h, read-out: Activity
[21] = test system: HT-29; assay: Growth inhibition of human HT-29 cells assessed as cell growth at 5X10'-8 M after 48 hrs by sulforhodamine B assay; details: HT-29, 48 h, read-out: Activity
[22] = test system: HL-60(TB); assay: Growth inhibition of human HL-60(TB) cells assessed as cell growth at 5X10'-6 M after 48 hrs by sulforhodamine B assay; details: HL-60, 48 h, read-out: Activity
[23] = test system: MDA-MB-231; assay: Growth inhibition of human MDA-MB-231 cells assessed as cell growth at 5X10'-6 M after 48 hrs by sulforhodamine B assay; details: MDA-MB-231, 48 h, read-out: Activity
[24] = test system: CCRF-CEM; assay: Growth inhibition of human CCRF-CEM cells assessed as cell growth at 5X10'-7 M after 48 hrs by sulforhodamine B assay; details: read-out: Activity
[25] = test system: M14; assay: Growth inhibition of human M14 cells assessed as cell growth at 5X10'-6 M after 48 hrs by sulforhodamine B assay; details: M14, 48 h, read-out: Activity
[26] = test system: HT-29; assay: Growth inhibition of human HT-29 cells assessed as cell growth at 5X10'-6 M after 48 hrs by sulforhodamine B assay; details: HT-29, 48 h, read-out: Activity
[27] = test system: COLO 205; assay: Growth inhibition of human COLO205 cells assessed as cell growth at 5X10'-5 M after 48 hrs by sulforhodamine B assay; details: COLO 205, 48 h, read-out: Activity
[28] = test system: TK-10; assay: Growth inhibition of human TK10 cells assessed as cell growth at 5X10'-9 M after 48 hrs by sulforhodamine B assay; details: TK-10, 48 h, read-out: Activity
[29] = test system: SW-620; assay: Growth inhibition of human SW620 cells assessed as cell growth at 5X10'-7 M after 48 hrs by sulforhodamine B assay; details: SW-620, 48 h, read-out: Activity
[30] = test system: SR; assay: Growth inhibition of human SR cells assessed as cell growth at 5X10'-9 M after 48 hrs by sulforhodamine B assay; details: read-out: Activity
[31] = test system: NCI-H226; assay: Growth inhibition of human NCI-H226 cells assessed as cell growth at 5X10'-5 M after 48 hrs by sulforhodamine B assay; details: NCI-H226, 48 h, read-out: Activity
[32] = test system: NCI-H226; assay: Growth inhibition of human NCI-H226 cells assessed as cell growth at 5X10'-9 M after 48 hrs by sulforhodamine B assay; details: NCI-H226, 48 h, read-out: Activity
[33] = test system: NCI-H522; assay: Growth inhibition of human NCI-H522 cells assessed as cell growth at 5X10'-8 M after 48 hrs by sulforhodamine B assay; details: NCI-H522, 48 h, read-out: Activity
[34] = test system: NCI-H23; assay: Growth inhibition of human NCI-H23 cells assessed as cell growth at 5X10'-8 M after 48 hrs by sulforhodamine B assay; details: NCI-H23, 48 h, read-out: Activity
[35] = Growth inhibition of human Hs 578T cells assessed as cell growth at 5X10'-6 M after 48 hrs by sulforhodamine B assay; details: read-out: Activity
[36] = test system: TK-10; assay: Growth inhibition of human TK10 cells assessed as cell growth at 5X10'-8 M after 48 hrs by sulforhodamine B assay; details: TK-10, 48 h, read-out: Activity
[37] = test system: CCRF-CEM; assay: Growth inhibition of human CCRF-CEM cells assessed as cell growth at 5X10'-8 M after 48 hrs by sulforhodamine B assay; details: read-out: Activity

O=C(Nc1cccc(-n2cc(-c3ccncc3)c(-c3ccc(Cl)c(O)c3)n2)c1)Nc1cc(C(F)(F)F)cc(C(F)(F)F)c1
growth at 5 µM [1]: -33%
growth at 0.005 µM [2]: 91%
growth at 0.005 µM [3]: 103%
growth at 0.5 µM [4]: 43%
growth at 0.05 µM [5]: 109%
growth at 0.005 µM [6]: 104%
growth at 0.5 µM [7]: 72%
growth at 0.005 µM [8]: 94%
growth at 50 µM [9]: -67%
growth at 0.005 µM [10]: 79%
growth at 50 µM [11]: -74%
growth at 5 µM [12]: -12%
growth at 5 µM [13]: -60%
growth at 0.5 µM [14]: 81%
growth at 0.05 µM [15]: 95%
growth at 0.5 µM [16]: 75%
growth at 50 µM [17]: -71%
growth at 0.5 µM [18]: 52%
growth at 50 µM [19]: -80%
growth at 50 µM [20]: -64%
growth at 0.05 µM [21]: 107%
growth at 5 µM [22]: 3%
growth at 5 µM [23]: -68%
growth at 0.5 µM [24]: 62%
growth at 5 µM [25]: -47%
growth at 5 µM [26]: -54%
growth at 50 µM [27]: -91%
growth at 0.005 µM [28]: 107%
growth at 0.5 µM [29]: 85%
growth at 0.005 µM [30]: 102%
growth at 50 µM [31]: -58%
growth at 0.005 µM [32]: 98%
growth at 0.05 µM [33]: 102%
growth at 0.05 µM [34]: 99%
growth at 5 µM [35]: -8%
growth at 0.05 µM [36]: 107%
growth at 0.05 µM [37]: 92%

COc1cc(-c2nn(-c3cccc(NC(=O)Nc4ccc(Cl)c(Cl)c4)c3)cc2-c2ccncc2)ccc1Cl
growth at 5 µM [1]: 3%
growth at 0.005 µM [2]: 91%
growth at 0.005 µM [3]: 99%
growth at 0.5 µM [4]: 64%
growth at 0.05 µM [5]: 113%
growth at 0.005 µM [6]: 100%
growth at 0.5 µM [7]: 82%
growth at 0.005 µM [8]: 94%
growth at 50 µM [9]: -13%
growth at 0.005 µM [10]: 87%
growth at 50 µM [11]: 5%
growth at 5 µM [12]: -17%
growth at 5 µM [13]: -24%
growth at 0.5 µM [14]: 74%
growth at 0.05 µM [15]: 95%
growth at 0.5 µM [16]: 83%
growth at 50 µM [17]: -20%
growth at 0.5 µM [18]: 68%
growth at 50 µM [19]: 3%
growth at 50 µM [20]: 3%
growth at 0.05 µM [21]: 102%
growth at 5 µM [22]: 6%
growth at 5 µM [23]: -47%
growth at 0.5 µM [24]: 74%
growth at 5 µM [25]: -29%
growth at 5 µM [26]: 2%
growth at 50 µM [27]: -94%
growth at 0.005 µM [28]: 100%
growth at 0.5 µM [29]: 89%
growth at 0.005 µM [30]: 99%
growth at 50 µM [31]: 4%
growth at 0.005 µM [32]: 98%
growth at 0.05 µM [33]: 101%
growth at 0.05 µM [34]: 101%
growth at 5 µM [35]: 11%
growth at 0.05 µM [36]: 103%
growth at 0.05 µM [37]: 98%

COc1cc(-c2nn(-c3cccc(NC(=O)Nc4cc(C(F)(F)F)cc(C(F)(F)F)c4)c3)cc2-c2ccncc2)ccc1Cl
growth at 5 µM [1]: -31%
growth at 0.005 µM [2]: 92%
growth at 0.005 µM [3]: 104%
growth at 0.5 µM [4]: 45%
growth at 0.05 µM [5]: 105%
growth at 0.005 µM [6]: 105%
growth at 0.5 µM [7]: 75%
growth at 0.005 µM [8]: 90%
growth at 50 µM [9]: -50%
growth at 0.005 µM [10]: 90%
growth at 50 µM [11]: -75%
growth at 5 µM [12]: -42%
growth at 5 µM [13]: -71%
growth at 0.5 µM [14]: 81%
growth at 0.05 µM [15]: 97%
growth at 0.5 µM [16]: 78%
growth at 50 µM [17]: -63%
growth at 0.5 µM [18]: 68%
growth at 50 µM [19]: -65%
growth at 50 µM [20]: -5%
growth at 0.05 µM [21]: 108%
growth at 5 µM [22]: 8%
growth at 5 µM [23]: -84%
growth at 0.5 µM [24]: 50%
growth at 5 µM [25]: -29%
growth at 5 µM [26]: -68%
growth at 50 µM [27]: -95%
growth at 0.005 µM [28]: 94%
growth at 0.5 µM [29]: 69%
growth at 0.005 µM [30]: 102%
growth at 50 µM [31]: -4%
growth at 0.005 µM [32]: 97%
growth at 0.05 µM [33]: 103%
growth at 0.05 µM [34]: 100%
growth at 5 µM [35]: -12%
growth at 0.05 µM [36]: 98%
growth at 0.05 µM [37]: 94%
